Marks after values point to notes of the source that are not given here.
What was measured:
Jurkat cells = assay: Cell cytotoxicity assay (Jurkat cell viability); assay type: cell-based, human; settings: 24 hours
Procedure: 1×10^5 Jurkat cells (immortalised human T lymphocytes) are added to the appropriate number of wells of a 96 well plate in 100 μL of media (RPMI supplemented with 10% foetal bovine serum). 1 μL of DMSO control (final concentration 1.0% v/v) or test compound (final concentration 20, 5 or 1 μg/mL) is added to the wells and incubated at 37° C., 5% CO2. After 24 hours, the plate is centrifuged at 1200 rpm for 3 minutes and the supernatant discarded. Cells are then resuspended in 150 μL (final concentration 7.5 μg/mL) of propidium iodide (PI) in PBS and incubated at 37° C., 5% CO2 for 15 minutes. After 15 minutes, cells are analysed by flow cytometry (BD accuri) using the FL3 window. The % viability is calculated as the % of cells that are PI negative in the test wells normalised to the DMSO control.

PBMCs = assay: LPS-induced IL-8 release in PBMC cells; assay type: cell-based; settings: Homo sapiens, LPS-stimulated PBMCs, read-out: IC50 Values for Inhibition of Cytokine Release PBMCs IL-8
Procedure, shortened: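 Healthy-donor PBMCs isolated by density gradient were pretreated with compound for 2 h, then stimulated with 1 ng/mL LPS (E. coli 0111:B4) for 24 h at 37° C., 5% CO2. IL-8 and TNFα in supernatants measured by sandwich ELISA.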

GSK3α = target: T1, GSK3α (Homo sapiens, UniProt P49840); assay: GSK3α enzyme inhibition (Method 2), FRET Z-LYTE; assay type: biochemical
T1 construct: purchased Invitrogen
Procedure: (§1) The enzyme inhibitory activities of compounds disclosed herein are determined by FRET using synthetic peptides labelled with both donor and acceptor fluorophores (Z-LYTE, Invitrogen Ltd., Paisley, UK).
The inhibitory activities of compounds of the invention against the GSK 3α enzyme isoform (Invitrogen), are evaluated by determining the level of activation/phosphorylation of the target peptide. The GSK3-α protein (500 ng/mL, 2.5 μL) is mixed with the test compound (2.5 μL at either 4 μg/mL, 0.4 μg/mL, 0.04 μg/mL, or 0.004 μg/mL) for 2 hr at RT. The FRET peptide (8 μM, 2.5 μL), which is a phosphorylation target for GSK3α, and ATP (40 μM, 2.5 μL) are then added to the enzyme/compound mixture and the resulting mixture incubated for 1 hr. Development reagent (protease, 5 μL) is added for 1 hr prior to detection in a fluorescence microplate reader (Varioskan® Flash, ThermoFisher Scientific).
(§2) In all cases, the site-specific protease cleaves non-phosphorylated peptide only and eliminates the FRET signal. Phosphorylation levels of each reaction are calculated using the ratio of coumarin emission (donor) over fluorescein emission (acceptor), for which high ratios indicate high phosphorylation and low ratios indicate low phosphorylation levels.
This method follows the same steps as Method 1 above, but utilises a shorter period of mixing of the test compound (105 minutes instead of 2 hours) with the GSK3-α protein.

[1] = Hydrolytic stability study; assay type: physicochemical; settings: DMSO/water (3:1); for % Parent Remaining, cumulative average from multiple experiments / % Parent Remaining: 1 mg/mL; for % Parent Remaining: experiment in which Example 2 was tested
Procedure: Chemical stability of compounds of the invention was assessed in a mixture of DMSO and water (3:1) at a test compound concentration of 1 mg/mL
General HPLC Procedure • Agilent, Waters X-Select C18, 2.5 μm, 4.6×30 mm column, 4 min method, 5-95% • MeCN/water (0.1% formic acid). • Flow rate 2.5 ml/min. • Column Oven Temperature 40° C. • Detection 254 nm.
Sample Preparation • A 1.0 mg sample of test compound was dissolved in 1 mL of DMSO/water (3:1) and the resulting mixture was stirred at rt overnight.
Recording Stability • A 50 μL aliquot of the test solution was removed and analysed in duplicate by 5 μL HPLC injections. The peak area for the test compound (taken to be 100% product, 0% degradation) was recorded following manual integration of the corresponding UV trace. The area retention time was also recorded. • The test solution was heated to 60° C. internal temperature (65° C. block temperature), with stirring, and timing commenced once the target temperature had been reached. After 5 and 24 h, samples were removed and analysed by HPLC (5 μL injections). In all cases, 5 μL injections were used and the samples analysed in duplicate. • The peak areas for the test compounds were recorded at both subsequent timepoints and the % decomposition calculated from the % change in peak area over time.

Syk = target: T2, Syk (Homo sapiens, UniProt P43405); assay: Syk enzyme inhibition, FRET Z-LYTE; assay type: biochemical
T2 construct: purchased Invitrogen
Procedure: as §1
(§3) The inhibitory activities of compounds of the invention against c-Src and Syk enzymes (Invitrogen), are evaluated in a similar fashion to that described hereinabove. The relevant enzyme (3000 ng/mL or 2000 ng/mL respectively, 2.5 μL) is incubated with the test compound (either 4 μg/mL, 0.4 μg/mL, 0.04 μg/mL, or 0.004 μg/mL, 2.5 μL each) for 2 hr at RT. The FRET peptides (8 μM, 2.5 μL), and appropriate ATP solutions (2.5 μL, 800 μM for c-Src, and 60 μM ATP for Syk) are then added to the enzymes/compound mixtures and incubated for 1 hr. Development reagent (protease, 5 μL) is added for 1 hr prior to detection in a fluorescence microplate reader (Varioskan® Flash, ThermoFisher Scientific).
as §2

c-Src = target: T3, c-Src (Homo sapiens, UniProt P12931); assay: c-Src enzyme inhibition, FRET Z-LYTE; assay type: biochemical
T3 construct: purchased Invitrogen
Procedure: as §1, §3, §2

p38 MAPKα = target: T4, p38 MAPKα (Homo sapiens, UniProt Q16539); assay: p38 MAPKα enzyme inhibition (Method 2), FRET Z-LYTE; assay type: biochemical
T4 construct: purchased Invitrogen
Procedure: as §1
The inhibitory activities of test compounds against the p38 MAPKα isoform (MAPK14: Invitrogen), are evaluated indirectly by determining the level of activation/phosphorylation of the down-stream molecule, MAPKAP-K2. The p38 MAPKα protein (80 ng/mL, 2.5 μL) is mixed with the test compound (2.5 μL of either 4 μg/mL, 0.4 μg/mL, 0.04 μg/mL or 0.004 μg/mL) for 2 hr at RT. […] The mixture is incubated for 1 hr at RT. Development reagent (protease, 5 μL) is added for 1 hr prior to detection in a fluorescence microplate reader (Varioskan® Flash, ThermoFisher Scientific).
This method follows the same steps as Method 1 above, but utilises a higher concentration of the p38 MAPKα protein (2.5 μL of 200 ng/mL protein instead of 2.5 μL of 80 ng/mL protein) for mixing with the test compound.
as §2

T1 sequence (P49840 whole entry): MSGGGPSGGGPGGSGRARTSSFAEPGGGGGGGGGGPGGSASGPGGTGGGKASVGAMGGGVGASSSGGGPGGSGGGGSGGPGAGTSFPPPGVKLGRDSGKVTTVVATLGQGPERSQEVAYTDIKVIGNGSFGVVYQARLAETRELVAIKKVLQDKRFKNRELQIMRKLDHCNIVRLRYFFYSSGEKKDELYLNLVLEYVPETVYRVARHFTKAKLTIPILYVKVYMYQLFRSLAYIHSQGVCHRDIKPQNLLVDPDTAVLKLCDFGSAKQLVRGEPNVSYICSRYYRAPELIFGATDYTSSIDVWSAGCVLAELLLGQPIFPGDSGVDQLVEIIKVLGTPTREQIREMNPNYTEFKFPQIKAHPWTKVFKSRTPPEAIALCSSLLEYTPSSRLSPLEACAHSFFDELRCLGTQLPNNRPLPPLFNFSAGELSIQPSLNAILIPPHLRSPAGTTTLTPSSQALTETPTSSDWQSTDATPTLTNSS
T3 sequence (P12931 whole entry): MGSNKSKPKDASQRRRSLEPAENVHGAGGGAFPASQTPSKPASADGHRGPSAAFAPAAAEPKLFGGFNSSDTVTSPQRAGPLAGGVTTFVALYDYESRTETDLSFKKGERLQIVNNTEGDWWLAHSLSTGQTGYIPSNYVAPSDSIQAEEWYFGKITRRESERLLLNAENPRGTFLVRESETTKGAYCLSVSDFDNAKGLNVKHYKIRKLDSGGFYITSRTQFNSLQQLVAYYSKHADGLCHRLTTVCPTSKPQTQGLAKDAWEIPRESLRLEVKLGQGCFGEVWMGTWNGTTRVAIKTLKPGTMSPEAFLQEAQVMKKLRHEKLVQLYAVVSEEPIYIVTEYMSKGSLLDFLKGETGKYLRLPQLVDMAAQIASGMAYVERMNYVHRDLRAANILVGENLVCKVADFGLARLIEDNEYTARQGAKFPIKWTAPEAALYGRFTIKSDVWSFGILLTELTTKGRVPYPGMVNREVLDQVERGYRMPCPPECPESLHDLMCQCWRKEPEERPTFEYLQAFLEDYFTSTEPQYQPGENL
T4 sequence (Q16539 whole entry): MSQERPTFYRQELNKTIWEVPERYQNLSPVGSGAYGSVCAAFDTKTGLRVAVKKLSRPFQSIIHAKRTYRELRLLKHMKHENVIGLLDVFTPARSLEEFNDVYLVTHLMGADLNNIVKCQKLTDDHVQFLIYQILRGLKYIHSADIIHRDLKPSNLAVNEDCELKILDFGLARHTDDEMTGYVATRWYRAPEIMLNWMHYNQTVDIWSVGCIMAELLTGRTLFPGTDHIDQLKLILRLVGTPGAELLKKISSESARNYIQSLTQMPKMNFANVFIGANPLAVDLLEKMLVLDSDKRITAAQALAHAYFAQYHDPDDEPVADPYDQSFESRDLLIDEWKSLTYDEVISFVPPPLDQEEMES

SMILES | % Viability at 1 μg/mL (Jurkat cells) [%] | % Viability at 5 μg/mL (Jurkat cells) [%] | % Viability at 20 μg/mL (Jurkat cells) [%] | IC50 (PBMCs) [nM] | also measured
COc1c(NC(=O)c2ccc(C)c(-c3ccc4nc(Nc5ccc(N=S(C)(C)=O)cc5)ncc4c3)c2)cc(C(C)(C)C)cc1NS(C)(=O)=O [Example 7, N-(5-(tert-Butyl)-2-methoxy-3-(methylsulfonamido)phenyl)-3-(2-((4-((dimethyl(oxo)-I6-sulfanylidene)amino)phenyl)amino)quinazolin-6-yl)-4-methylbenzamide] | 79.0 | 54.7 | 49.7 | 3.8 | –
COc1cc(Nc2ncc3cc(-c4cc(C(=O)Nc5cc(C(C)(C)C)cc(P(C)(C)=O)c5OC)ccc4C)ccc3n2)cc(C(=O)NCCN2CCOCC2)c1 [Example 4, N-(5-(tert-Butyl)-3-(dimethylphosphoryl)-2-methoxyphenyl)-3-(2-((3-methoxy-5-((2-morpholinoethyl)carbamoyl)phenyl)amino)quinazolin-6-yl)-4-methylbenzamide] | – | – | – | 14.8 | IC50 (GSK3α): > 12800 nM
COc1cc(Nc2ncc3cc(-c4cc(C(=O)Nc5cc(C(C)(C)C)cc(NS(C)(=O)=O)c5OC)ccc4C)ccc3n2)ccc1C(=O)O [Example 8, 4-((6-(5-((5-(tert-Butyl)-2-methoxy-3-(methylsulfonamido)phenyl)carbamoyl)-2-methylphenyl)quinazolin-2-yl)amino)-2-methoxybenzoic acid] | 91.1 | 65.8 | 30.6 | 4 | –
C#Cc1cc(Nc2ncc3cc(-c4cc(C(=O)Nc5cc(C(C)(C)C)cc(NS(C)(=O)=O)c5OC)ccc4C)ccc3n2)cc(C(=O)NCCOCCOCCOC)c1 [14(g), N-(5-(tert-Butyl)-2-methoxy-3-(methylsulfonamido)phenyl)-3-(2-((3-ethynyl-5-((2-(2-(2-methoxyethoxy)ethoxy)ethyl)carbamoyl)phenyl)amino)quinazolin-6-yl)-4-methylbenzamide] | 110.1 | 75.5 | 65.4 | 17.3 | –
COc1cc(Nc2ncc3cc(-c4cc(C(=O)Nc5cc(C(C)(C)C)cc(NS(C)(=O)=O)c5OC)ccc4C)ccc3n2)ccc1C(=O)N(C)CCN1CCOCC1 [Example 9, 4-((6-(5-((5-(tert-Butyl)-2-methoxy-3-(methylsulfonamido)phenyl)carbamoyl)-2-methylphenyl)quinazolin-2-yl)amino)-2-methoxy-N-methyl-N-(2-morpholinoethyl)benzamide] | 63.0 | 38.4 | 28.7 | 3.1 | –
COc1c(NC(=O)c2ccc(C)c(-c3ccc4nc(Nc5cccc(CP(C)(C)=O)c5)ncc4c3)c2)cc(C(C)(C)C)cc1NS(C)(=O)=O [14(i), N-(5-(tert-Butyl)-2-methoxy-3-(methylsulfonamido)phenyl)-3-(2-((3-((dimethylphosphoryl)methyl)phenyl)amino)quinazolin-6-yl)-4-methylbenzamide] | 69.8 | 8.4 | 2.1 | 6.9 | –
COCC(=O)Nc1cc(Oc2ccc(NC(=O)Nc3cc(C(C)(C)C)nn3-c3ccc(C)cc3)c3ccccc23)ccn1 [Reference Compound A, N-(4-(4-(3-(3-tert-butyl-1-p-tolyl-1H-pyrazol-5-yl)ureido)naphthalen-1-yloxy)pyridin-2-yl)-2-methoxyacetamide, reference compound] | 23.5 | 18.9 | 17.3 | – | –
C#Cc1cc(Nc2nccc(Oc3ccc(NC(=O)Nc4cc(C(C)C)nn4-c4ccc(C)cc4)c4ccccc34)n2)cc(C(=O)NCCN2CCOCC2)c1 [Reference Compound B, 3-ethynyl-5-((4-((4-(3-(3-isopropyl-1-(p-tolyl)-1H-pyrazol-5-yl)ureido)naphthalen-1-yl)oxy)pyrimidin-2-yl)amino)-N-(2-morpholinoethyl)benzamide] | – | – | – | – | % Parent Remaining, cumulative average from multiple experiments ([1]; 60° C., 300 min): 71.0%; % Parent Remaining ([1]; 60° C., 300 min): 93.3%; % Parent Remaining, cumulative average from multiple experiments ([1]; 60° C., 1440 min): 26.0%; % Parent Remaining ([1]; 60° C., 1440 min): 52.3%; % Parent Remaining, cumulative average from multiple experiments ([1]; time 0 min): 100^a (100^b) %; % Parent Remaining ([1]; time 0 min): 100^a (100^b) %; decomposition under the conditions of the hydrolytic stability experiment, in words ([1]; 60° C.): underwent substantial decomposition
COCCOCCOCCOc1cc(Nc2ncc3cc(-c4cc(C(=O)Nc5cccc(C(F)(F)F)c5)ccc4C)ccc3n2)cc(OC)c1 [Example 1, 3-(2-((3-Methoxy-5-(2-(2-(2-methoxyethoxy)ethoxy)ethoxy)phenyl)amino)quinazolin-6-yl)-4-methyl-N-(3-(trifluoromethyl)phenyl)benzamide] | – | – | – | 134 | IC50 (Syk): > 1450 nM; IC50 (GSK3α): > 14500 nM; IC50 (c-Src): 14 nM; IC50 (p38 MAPKα): 776 nM

— patent US20170209445A1, “KINASE INHIBITORS” (Respivert Limited, priority 2014, published 2017)
